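Cultured in 96-well plates, cells were exposed to test compound for 48 hours across five concentrations. GI50 is the concentration that inhibits growth by half.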 Active and inactive are the calls of the source. No stated cut-off is given here; in the data, active = GI50 up to about 1.1 µM and inactive = higher.
Tests used:
Assay in all cases: DTP human tumour cell line panel, 48 h
A498 = system: A498
DU-145 = system: DU-145
K562 = system: K562
MCF7 = system: MCF7
MDA-MB-231 = system: MDA-MB-231
MDA-MB-435 = system: MDA-MB-435
MDA-N = system: MDA-N
MOLT-4 = system: MOLT-4
Malme-3M = system: Malme-3M
NCI-H226 = system: NCI-H226
NCI-H23 = system: NCI-H23
NCI/ADR-RES = system: NCI/ADR-RES
PC-3 = system: PC-3
SNB-75 = system: SNB-75
UACC-257 = system: UACC-257
UACC-62 = system: UACC-62
DLD-1 = system: DLD-1
DMS-114 = system: DMS-114
HOP-18 = system: HOP-18
LXFL 529 = system: LXFL 529

Row | SMILES | GI50 (A498) | GI50 (DU-145) | GI50 (K562) | GI50 (MCF7) | GI50 (MDA-MB-231) | GI50 (MDA-MB-435) | GI50 (MDA-N) | GI50 (MOLT-4) | GI50 (Malme-3M) | GI50 (NCI-H226) | GI50 (NCI-H23) | GI50 (NCI/ADR-RES) | GI50 (PC-3) | GI50 (SNB-75) | GI50 (UACC-257) | GI50 (UACC-62) | GI50 (DLD-1) | GI50 (DMS-114) | GI50 (HOP-18) | GI50 (LXFL 529)
1 | O=C1[C@@H]2[C@@H](CN3CN(c4ccccc4)N=C(c4ccccc4)[C@@]23c2ccccc2)C(=O)N1c1ccccc1 | 18.4 µM (inactive) | 7.14 µM (inactive) | 2.69 µM (inactive) | 1.94 µM (inactive) | 4.54 µM (inactive) | 5.68 µM (inactive) | 5.19 µM (inactive) | 2.84 µM (inactive) | 1.82 µM (inactive) | 0.977 µM (active) | 8.69 µM (inactive) | 17.5 µM (inactive) | 6.31 µM (inactive) | 16 µM (inactive) | 12 µM (inactive) | 5.98 µM (inactive) | – | – | – | –
2 | Cc1cccc(NC(=S)N/N=C2\C(=O)Nc3ccccc32)c1 | 29.7 µM (inactive) | 14.1 µM (inactive) | 65.8 µM (inactive) | > 100 µM (inactive) | > 100 µM (inactive) | 80.4 µM (inactive) | > 100 µM (inactive) | 59 µM (inactive) | 66.1 µM (inactive) | > 100 µM (inactive) | > 100 µM (inactive) | 29.9 µM (inactive) | 68.4 µM (inactive) | 63.1 µM (inactive) | > 100 µM (inactive) | > 100 µM (inactive) | – | – | – | –
3 | CCCNC(=O)C(C)C1CCC2(C)C=CC(=O)C(C)=C2C1O (configuration not stated) | > 100 µM (inactive) | – | > 100 µM (inactive) | > 100 µM (inactive) | – | – | – | > 100 µM (inactive) | – | > 100 µM (inactive) | > 100 µM (inactive) | > 100 µM (inactive) | – | > 100 µM (inactive) | > 100 µM (inactive) | > 100 µM (inactive) | > 100 µM (inactive) | > 100 µM (inactive) | > 100 µM (inactive) | –
4 | CCC(C)C(=O)c1c(O)c(C/C=C(\C)CCC=C(C)C)c(O)c2c(C(O)CC)cc(=O)oc12 (configuration not stated) | 2.05 µM (inactive) | – | 0.679 µM (active) | – | – | – | – | 1.59 µM (inactive) | 2.24 µM (inactive) | 2.53 µM (inactive) | 1.56 µM (inactive) | – | – | 1.49 µM (inactive) | 2.21 µM (inactive) | 1.3 µM (inactive) | 1.55 µM (inactive) | 0.498 µM (active) | – | 1.16 µM (inactive)
5 | Cc1nc2ccc(C(F)(F)F)cc2nc1Nc1ccc(Cl)c(Cl)c1 | – | – | – | – | – | – | – | 7 µM (inactive) | 19.9 µM (inactive) | 16.1 µM (inactive) | 12.6 µM (inactive) | – | – | > 10 µM (inactive) | 12.8 µM (inactive) | 12.9 µM (inactive) | 9.42 µM (inactive) | – | 15.3 µM (inactive) | 7.87 µM (inactive)
